Laboratory results as given in US20100015240A1, “PROCESS FOR PREPARING MICROPARTICLES CONTAINING BIOACTIVE PEPTIDES” (priority 2008, published 2010).

Test: Peptide solubility in polyols estimated by visual observation of solutions
Format: physicochemical
Conditions: solvent propylene glycol
Excerpt: Solubilities at various concentration ranges were estimated based on visual observations of solutions prepared at the indicated peptide concentration levels listed in Table II.

Measured: Peptide solubility at specified concentration level

C[C@@H](O)[C@@H]1NC(=O)[C@H](CCCCN)NC(=O)[C@@H](Cc2c[nH]c3ccccc23)NC(=O)[C@H](Cc2ccccc2)NC(=O)[C@@H](NC(=O)[C@H](N)Cc2ccccc2)CSSC[C@@H](C(=O)N[C@H](CO)[C@@H](C)O)NC1=O [Octreotide]
Soluble: 100 mg/mL | <10 mg/mL | at 10 mg/mL
